According to patent US20250312323A1 (Cavion, Inc., priority 2018, published 2025):

Experiments:
[1] = test system: patients with essential tremor; test: T-CALM: Patient Global Impression of Change (PGIC); format: in vivo, human; conditions: for PGIC score (rescaled −3 to 3), LS mean (SE): ANCOVA
From the text: Treatment success as measured by PGIC was summarized using descriptive statistics.
The Patient Global Impression of Change (PGIC) will quantify a patient's impression of improvement or decline over time with respect to ET treatment (see, e.g., Guy, Assessment Mantal for Psychopharmacology. Rockville, MD: Department of Health, Education, and Welfare Public Health Service Alcohol, Drug Abuse, and Mental Health Administration, 1976). The patient will use the PGIC scale to assess current health status versus initiation of treatment and calculate the difference.

[2] = test system: patients with essential tremor; test: T-CALM: TETRAS performance subscale, independent video raters; format: in vivo, human; conditions: Day 28
From the text: (§1) Both sets of scores were statistically analyzed.

[3] = test system: patients with essential tremor; test: T-CALM: Kinesia ONE accelerometry score; format: in vivo, human
From the text: Kinesia One platform is deployed in T-CALM as a digital marker of tremor severity. Kinesia One is FDA cleared for monitoring Parkinson's motor symptom severity with only limited data on assessment of tremor in ET patients. The algorithmically derived score was developed primarily in Parkinson's disease algorithms and has limited validation in ET (see, e.g., Hoffman et al., 2011 Conf Proc IEEE Eng Med Biol Soc. 2011:4378-81). The Kinesia One device is placed on the index finger of each ET patient and worn in the clinic after completion of the TETRAS Performance subscale. Four tasks are performed by the patient on the left and right sides to assess resting, postural, kinetic and lateral wing beating tremor. The Kinesia One score change in score from baseline to day 28 is evaluated as a secondary efficacy endpoint. The Kinesia One data is also utilized for exploratory analysis of efficacy on the change from baseline to day 15 for accelerometry score and for change from baseline on amplitude measures for days 15 and 28. Consistent finger sensor placement and consistent task execution are critical factors for valid Kinesia One scores.
as §1

[4] = Pharmacokinetics of CX-8998 immediate release capsules in healthy volunteers (Studies PN001, PN002); format: in vivo, human; conditions: 2-18 mg dose range
[5] = test system: patients with essential tremor; test: T-CALM: QUEST questionnaire, items on anti-tremor medication; format: in vivo, human
[6] = test system: patients with essential tremor; test: T-CALM: TETRAS total score; format: in vivo, human
Experimental: The Total TETRAS score was defined as the sum of the TETRAS performance subscale total score and the TETRAS ADL subscale score. TETRAS TOTAL score combines both patient reported outcome and objective measurement of tremor amplitude in a single score. Analyses of the TETRAS-ADL was conducted using the same type of ANCOVA model as described for the TETRAS-PS, using two-sided tests at the alpha=0.05 level of significance (FIG. 3 and Table 3).
as §1

[7] = test system: patients with essential tremor; test: T-CALM: electrocardiogram, vital signs, clinical laboratory, examinations; format: in vivo, human
Experimental: Electrocardiogram results were calculated as the average of the triplicate records at each time point. Baseline was defined as the mean of the triplicate values obtained pre-dose at Day 1. If this value was not available, the mean of the triplicate records obtained at screening were used.
Safety procedures involved collection of all TEAEs (treatment-emergent adverse events) coded into the Medical Dictionary for Regulatory Activities (MedDRA) version 20. Adverse events were classified by maximum severity, drug-related adverse events, serious adverse events, and adverse events leading to patient discontinuation.

EEG alpha power = test: Human pharmaco-EEG alpha power (Study PN001/Part II); format: in vivo; conditions: at plasma concentrations greater than 200 to 300 nM (4 mg BID)
From the text: FIG. 91 contains a graph showing the analysis of awake EEG absolute power for Alpha band (Electrode site Oz, eyes closed condition) (Study PN001/Part II).
FIG. 92 contains a graph showing the pharmacokinetic/pharmacodynamic analysis of EEG Alpha power (Study PN001/Part 1). BID=twice daily; EEG=electroencephalogram; MK=CX-8998; PBO=placebo; PD=pharmacodynamic.

Solubility of CX-8998 = format: physicochemical; conditions: at higher pH values
From the text: Sustained release (SR) beads were developed with multiple types of sustained release and enteric coatings. Some SR matrix beads were developed using typical polymers (e.g., hydroxypropyl methylcellulose or carbopol) to achieve sustained release. Some SR matrix beads were developed using pH independent sustained release osmotic pumps to achieve zero order release from the tablet. […] Some SR matrix beads were developed using Eudragit RS/RL30D coating of IR beads to achieve an approach that depends on slow erosion of coating thereby sustaining the release of the drug from an IR matrix.

[8] = Day 15, change from baseline, N = 39
[9] = Day 28, change from baseline, N = 37

CC(C)c1ccc(CC(=O)N[C@H](C)c2ccc(OCC(F)(F)F)cn2)cc1 [CX-8998]
PGIC Category 0 No change, patients, number (%) ([1]; Day 15): 11 (28%)
PGIC Category 1 Minimally improved, patients, number (%) ([1]; Day 15): 17 (44%)
PGIC Category 2 Much improved, patients, number (%) ([1]; Day 15): 8 (21%)
PGIC Category 3 Very much improved, patients, number (%) ([1]; Day 15): 1 (3%)
PGIC Category −1 Minimally worse, patients, number (%) ([1]; Day 15): 1 (3%)
PGIC Category −2 Much worse, patients, number (%) ([1]; Day 15): 1 (3%)
PGIC Category −3 Very much worse, patients, number (%) ([1]; Day 15): 0
mean PGIC score vs placebo ([1]; Day 15): significantly greater (improved)
PGIC Score, subjects 0 - no change, n (%) ([1]; Day 15, N = 39): 11 (28%)
PGIC Score, subjects 1 - minimally improved, n (%) ([1]; Day 15, N = 39): 17 (44%)
PGIC Score, subjects 2 - much improved, n (%) ([1]; Day 15, N = 39): 8 (21%)
PGIC Score, subjects 3 - very much improved, n (%) ([1]; Day 15, N = 39): 1 (3%)
PGIC Score, subjects −1 - minimally worse, n (%) ([1]; Day 15, N = 39): 1 (3%)
PGIC Score, subjects −2 - much worse, n (%) ([1]; Day 15, N = 39): 1 (3%)
PGIC Score, subjects −3 - very much worse, n (%) ([1]; Day 15, N = 39): 0
PGIC score (rescaled −3 to 3), LS mean (SE) ([1]; Day 15): 0.9 (0.17)
PGIC Category 0 No change, patients, number (%) ([1]; Day 28): 14 (36%)
PGIC Category 1 Minimally improved, patients, number (%) ([1]; Day 28): 10 (26%)
PGIC Category 2 Much improved, patients, number (%) ([1]; Day 28): 7 (18%)
PGIC Category 3 Very much improved, patients, number (%) ([1]; Day 28): 3 (8%)
PGIC Category −1 Minimally worse, patients, number (%) ([1]; Day 28): 1 (3%)
PGIC Category −2 Much worse, patients, number (%) ([1]; Day 28): 1 (3%)
PGIC Category −3 Very much worse, patients, number (%) ([1]; Day 28): 1 (3%)
mean PGIC score vs placebo ([1]; Day 28): trended toward significant improvement
PGIC Score, subjects 0 - no change, n (%) ([1]; Day 28, head N = 39): 14 (36%)
PGIC Score, subjects 1 - minimally improved, n (%) ([1]; Day 28, head N = 39): 10 (26%)
PGIC Score, subjects 2 - much improved, n (%) ([1]; Day 28, head N = 39): 7 (18%)
PGIC Score, subjects 3 - very much improved, n (%) ([1]; Day 28, head N = 39): 3 (8%)
PGIC Score, subjects −1 - minimally worse, n (%) ([1]; Day 28, head N = 39): 1 (3%)
PGIC Score, subjects −2 - much worse, n (%) ([1]; Day 28, head N = 39): 1 (3%)
PGIC Score, subjects −3 - very much worse, n (%) ([1]; Day 28, head N = 39): 1 (3%)
PGIC score (rescaled −3 to 3), LS mean (SE) ([1]; Day 28): 0.8 (0.19)
LS mean (±SE) change from baseline in TETRAS-PS scored by independent video raters (primary endpoint) [2]: −1.8±0.81
Kinesia ONE Total Score change from baseline, LS mean difference from placebo (95% CI) ([3]; Day 15, ANCOVA): −0.4 (−1.7, 0.9)
Kinesia ONE score, difference vs placebo ([3]; Day 15 and Day 28): did not show a significant difference
dose proportionality of plasma profiles [4]: dose proportional
QUEST: Side effect from tremor medication in past month? answer No, patients, number (%) ([5]; Day 15): 25 (64%)
QUEST: Side effect from tremor medication in past month? answer Yes, patients, number (%) ([5]; Day 15): 14 (36%)
QUEST: Side effect from tremor medication in past month? answer No, patients, number (%) ([5]; Day 28): 30 (77%)
QUEST: Side effect from tremor medication in past month? answer Yes, patients, number (%) ([5]; Day 28): 7 (18%)
Subjects with improvement of at least 5 points by TETRAS Total score, number ([6]; Day 15, N 39): 22
TETRAS Total Score, subjects with 0 change, n (%) [6, 8]: 1 (2.6%)
TETRAS Total Score, subjects with >0 to 1 point improvement, n (%) [6, 8]: 2 (5.1%)
TETRAS Total Score, subjects with >0 to 1 point worsening, n (%) [6, 8]: 2 (5.1%)
TETRAS Total Score, subjects with >1 to 2.5 point improvement, n (%) [6, 8]: 2 (5.1%)
TETRAS Total Score, subjects with >1 to 2.5 point worsening, n (%) [6, 8]: 1 (2.6%)
TETRAS Total Score, subjects with >2.5 to 5 point improvement, n (%) [6, 8]: 7 (17.9%)
TETRAS Total Score, subjects with >2.5 to 5 point worsening, n (%) [6, 8]: 4 (10.3%)
TETRAS Total Score, subjects with >5 to 10 point improvement, n (%) [6, 8]: 6 (15.4%)
TETRAS Total Score, subjects with >5 to 10 point worsening, n (%) [6, 8]: 0
TETRAS Total Score, subjects with >10 point worsening, n (%) [6, 8]: 0
TETRAS Total Score, subjects with >10 to 20 point improvement, n (%) [6, 8]: 12 (30.8%)
TETRAS Total Score, subjects with >20 point improvement, n (%) [6, 8]: 2 (5.1%)
total TETRAS score with TETRAS-PS rated by independent video raters, vs placebo ([6]; Day 15 or 28): not statistically significant
Subjects with improvement of at least 5 points by TETRAS Total score, number ([6]; Day 28, N 37): 21
TETRAS Total Score, subjects with 0 change, n (%) [6, 9]: 0
TETRAS Total Score, subjects with >0 to 1 point improvement, n (%) [6, 9]: 2 (5.4%)
TETRAS Total Score, subjects with >0 to 1 point worsening, n (%) [6, 9]: 4 (10.8%)
TETRAS Total Score, subjects with >1 to 2.5 point improvement, n (%) [6, 9]: 2 (5.4%)
TETRAS Total Score, subjects with >1 to 2.5 point worsening, n (%) [6, 9]: 2 (5.4%)
TETRAS Total Score, subjects with >2.5 to 5 point improvement, n (%) [6, 9]: 5 (13.5%)
TETRAS Total Score, subjects with >2.5 to 5 point worsening, n (%) [6, 9]: 1 (2.7%)
TETRAS Total Score, subjects with >5 to 10 point improvement, n (%) [6, 9]: 7 (18.9%)
TETRAS Total Score, subjects with >5 to 10 point worsening, n (%) [6, 9]: 0
TETRAS Total Score, subjects with >10 point worsening, n (%) [6, 9]: 0
TETRAS Total Score, subjects with >10 to 20 point improvement, n (%) [6, 9]: 8 (21.6%)
TETRAS Total Score, subjects with >20 point improvement, n (%) [6, 9]: 5 (13.5%)
clinical laboratory parameters vs placebo [7]: No clinically meaningful differences
vital signs, ECG, neurological and physical examinations [7]: No clinically significant abnormalities
reduction of EEG alpha power (EEG alpha power): ≥ 25%
solubility (Solubility of CX-8998): poor solubility
